# Assay results reported in patent US11135160B2, “Use of chlorogenic acid in preparing pharmaceuticals for treatment of LAG-3-mediated disease” (SICHUAN JIUZHANG BIOLOGICAL SCIENCE AND TECHNOLOGY CO. LTD, priority 2016, dated 2021).
# Columns and labels:
# [1] = system: LAG-3 protein; test: Immunohistochemistry of LAG-3 protein expression in in situ lesion of GL261 glioma mice; format: in vivo, C57BL/6 mice; details: 7 days, chlorogenic acid 40 mg/kg intraperitoneal, temozolomide 20 mg/kg oral, saline control 69%
# Procedure: GL261 glioma cells in exponential phase of growth were prepared as GL261 single cell suspension at a concentration of 5×10^5/μL. After anesthetized with 0.75% pentobarbital sodium at 6 μL/g, the hair at the puncture site was stripped, and the heads of mice were fixed with ALC-H mouse brain stereotactic apparatus for longitudinal incision of scalp. […] GL261 single cell suspension was injected using micro pump at 2.5 μL/min, and the pinpoint was sealed with bone wax, then the incision of scalp was carefully sutured. Totally, 35 mice were inoculated, and the remained 5 mice were normal. The dead mice were removed, and C57BL/6 mice inoculated with GL261 glioma cells were randomly divided to 3 groups, including the saline control group (NC group), chlorogenic acid injection group (CA group), and temozolomide (TMZ) positive control group. Amongst, CA group is intraperitoneally injected with 40 mg/kg chlorogenic acid everyday, NC group is injected with the same volume of saline, and TMZ treatment group orally takes 20 mg/kg temozolomide. […]
# After completion of experiment, in situ lesion of each group mice was cut, while the brain tissue of 5 remained normal mice mentioned in step 2.2 was cut. […] The immunohistochemical results were analyzed by semiquantitative method, and finally, the expression rate of LAG-3 protein in different tissue sample was subjected to statistical analysis.
# [2] = system: CD3+T lymphocytes and CD4+T lymphocytes; test: T cell proliferation in peripheral blood of GL261 glioma mice; format: in vivo, C57BL/6 mice; details: 40 mg/kg intraperitoneal, 7 days, vs saline control group
# Procedure: GL261 glioma cells in exponential phase of growth were prepared as GL261 single cell suspension at a concentration of 5×10^5/μL. After anesthetized with 0.75% pentobarbital sodium at 6 μL/g, the hair at the puncture site was stripped, and the heads of mice were fixed with ALC-H mouse brain stereotactic apparatus for longitudinal incision of scalp. […] GL261 single cell suspension was injected using micro pump at 2.5 μL/min, and the pinpoint was sealed with bone wax, then the incision of scalp was carefully sutured. Totally, 35 mice were inoculated, and the remained 5 mice were normal. The dead mice were removed, and C57BL/6 mice inoculated with GL261 glioma cells were randomly divided to 3 groups, including the saline control group (NC group), chlorogenic acid injection group (CA group), and temozolomide (TMZ) positive control group. Amongst, CA group is intraperitoneally injected with 40 mg/kg chlorogenic acid everyday, NC group is injected with the same volume of saline, and TMZ treatment group orally takes 20 mg/kg temozolomide. [table] […] Detecting the proliferation status of T lymphocytes may reflect the strong/weak inhibitory action of LAG-3. […]
# [3] = system: LAG-3; test: Content of LAG-3 in JurkatE6-1 cells, ELISA with human lymphocyte activation gene 3 detection kit; format: cell-based; details: 48 h
# Procedure: (§1) CLL cells and JurkatE6-1 cells in exponential phase of growth with good conditions were inoculated in 6 well plate at a concentration of 5×10^5/ml. Each kind of cells were set four groups, and each group has three repeat holes for administration. Amongst, three chlorogenic acid groups received the drug dissolved in blank 1640 medium (1 mL) at the desired concentration, while the blank control group received the same volume of blank 1640 medium. [table] In this example, by ELISA experiment, the activity of LAG-3 in cells of each group was determined using human lymphocyte activation gene 3 detection kit. After cells of each group acted with corresponding drugs for 48 h, cell culture fluid of each group was collected and divided into two parts. The protein of one part was quantitated using BCA method, and the activity of LAG-3 in cells of each group was determined using human lymphocyte activation gene 3 detection kit, to calculate the content of LAG-3 in each group.
# [4] = system: LAG-3 gene; test: Expression of LAG-3 gene in JurkatE6-1 cells by RT-PCR; format: cell-based, human; details: 48 h, vs blank control group (*p<0.05)
# Procedure: (§2) CLL cells and JurkatE6-1 cells in exponential phase of growth with good conditions were inoculated in 6 well plate at a concentration of 5×10^5/ml. Each kind of cells were set four groups, and each group has three repeat holes for administration. Amongst, three chlorogenic acid groups received the drug dissolved in blank 1640 medium (1 mL) at the desired concentration, while the blank control group received the same volume of blank 1640 medium.
# (§3) Using RNA prep Pure cultured cell/bacteria total RNA extraction kit (centrifugal column), total RNA was extracted from cells, and the operative procedures were carried out as the instructions. The detailed extraction procedures are briefly described as follows:
# (§4) Using cDNA first strand synthesis kit and the resultant RNA solution by above extraction, the corresponding first strand cDNA was synthesized. The detailed reverse transcription procedures were carried out according to the instructions, that is briefly described as follows:
# (§5) Because EvaGreen fluorescent dye can produce strong fluorescence when binding with the double-stranded DNA, the total amount of DNA formed by reaction can be obtained by detecting the final fluorescence intensity. To the test tube, were added fluorescent dye, cDNA product synthesized in steps (1) and (2), LAG-3 primer (Forward primer SEQ ID NO: 1 5′-[…]-3′, downstream primer SEQ ID NO: 2 5′-[…]-3′), and well mixed, then subjected to RT-PCR measurement. Amongst, […] group was set for each sample for calculating the relative magnitude, to perform the relative quantitation.
# [5] = system: LAG-3 gene; test: Expression of LAG-3 gene in CLL cells by RT-PCR; format: cell-based, human; details: 48 h, vs blank control group (*p<0.05)
# Procedure: as §2, §3, §4, §5
# [6] = system: LAG-3; test: Content of LAG-3 in CLL cells, ELISA with human lymphocyte activation gene 3 detection kit; format: cell-based; details: 48 h
# Procedure: as §1
# [7] = high dose 100 μM, vs blank control group (*p<0.05)
# [8] = middle dose 50 μM, vs blank control group (*p<0.05)
SMILES,average percentage of LAG-3 protein high expression [1],percentage of CD3+T lymphocytes in peripheral blood lymphocytes [2],percentage of CD4+T lymphocytes in peripheral blood lymphocytes [2],"content of LAG-3 [3, 7]",content of LAG-3 ([3]; low dose 10 μM),"content of LAG-3 [3, 8]",expression level of LAG-3 gene ([4]; high dose 100 μM),expression level of LAG-3 gene ([4]; low dose 10 μM),expression level of LAG-3 gene ([4]; middle dose 50 μM),expression level of LAG-3 gene ([5]; high dose 100 μM),expression level of LAG-3 gene ([5]; low dose 10 μM),expression level of LAG-3 gene ([5]; middle dose 50 μM),"content of LAG-3 [6, 7]",content of LAG-3 ([6]; low dose 10 μM),"content of LAG-3 [6, 8]"
"O=C(/C=C/c1ccc(O)c(O)c1)O[C@@H]1C[C@](O)(C(=O)O)C[C@@H](O)[C@H]1O [chlorogenic acid, 3-o-caffeoylquinic acid]",23.78%,obviously promote the proliferation,obviously promote the proliferation,obviously different,lowered,obviously different,obviously reduced,obviously reduced,obviously reduced,obviously different,obviously different,obviously different,obviously different,lowered,obviously different
"Cn1nnc2c(C(N)=O)ncn2c1=O [temozolomide, reference compound]",44.83%,–,–,–,–,–,–,–,–,–,–,–,–,–,–
